# According to patent publication US6297230A, “Cyanoaziridines for treating cancer” (priority 2000, dated 2001):
# Where two headings read alike, the source gives them in different places.
# Tests used:
# [1] = test system: L-1210 leukemia cells (sensitive); test: MTT growth inhibition, sensitive L-1210 leukemia cells; type: cell-based, mouse; conditions: Mus musculus, L1210, 192 h
# Description: Tumors are disaggregated into single cell suspensions using mechanical, hypoosmotic, and/or enzymatic (trypsin) methods. The cells are plated at a concentration of 3-5×10^4 per […] well into plastic 96-well plates. Growth medium containing 5-10% (vol/vol) heat-inactivated fetal bovine serum and penicillin/streptomycin (both […]) are added prior to incubation at 37° C. for 6 days. Afterwards the medium containing the drug is removed, the cells are centrifuged in fresh medium or phosphate-buffered saline (pH 7.4). A tetrazolium dye, […]-2,5-diphenyl tetrazolium (MTT), is then added. (Mossman, T., J Immunol 65:55-63, 1983.) This dye forms a colored formazan product upon activation by mitochondrial reductases in viable cells. Typically, the formazan product is solubilized in acid-propanol or DMSO. The intensity of the color is proportional to viable cell numbers and this is quantitated by spectrophotometric absorbance at 570 nm on a micro ELISA plate reader. The results are calibrated in % control absorbance from untreated tumor cells. (Alley, et al., Cancer Res 48:589-601, 1988.) […]
# Murine L-1210 Leukemia Cells were first described by Law, et al. from a female DBA/2 mouse exposed to topical methylcholanthrene. (Law, et al., J Natl Cancer Inst 10:179-192, 1949.) The cells represent a lymphocytic lineage and are highly tumorigenic in syngeneic DBA/2 mice, producing lethality typically 10-14 days after inoculation. This cell line has been used extensively to characterize the antitumor activity of chemotherapeutic agents. (Goldin, et al., Cancer Res (Cancer Chemotherapy Screening Data IX) 21:27-92, 1961.) The L-1210 cells have a model 40-41 chromosomes and a very high plating efficiency in suspension cultures in vitro.
# (§1) *Drug continuously present for 8 days; IC50 measured by MTT dye
# [2] = test system: 8226/S myeloma cells; test: MTT growth inhibition, parental 8226 myeloma cells; type: cell-based, human
# Description: (§2) Microculture Tetrazolium (MTT) Assay for Tumor Cells
# (§3) Tumors are disaggregated into single cell suspensions using mechanical, hypoosmotic, and/or enzymatic (trypsin) methods. The cells are plated at a concentration of 3-5×10^4 per […] well into plastic 96-well plates. Growth medium containing 5-10% (vol/vol) heat-inactivated fetal bovine serum and penicillin/streptomycin (both […]) are added prior to incubation at 37° C. for 6 days. Afterwards the medium containing the drug is removed, the cells are centrifuged in fresh medium or phosphate-buffered saline (pH 7.4). A tetrazolium dye, […]-2,5-diphenyl tetrazolium (MTT), is then added. (Mossman, T., J Immunol 65:55-63, 1983.) This dye forms a colored formazan product upon activation by mitochondrial reductases in viable cells. Typically, the formazan product is solubilized in acid-propanol or DMSO. The intensity of the color is proportional to viable cell numbers and this is quantitated by spectrophotometric absorbance at 570 nm on a micro ELISA plate reader. The results are calibrated in % control absorbance from untreated tumor cells. (Alley, et al., Cancer Res 48:589-601, 1988.)
# (§4) The following unpublished studies were performed in vitro to develop and characterize a human myeloma cell line with resistance to imexon-induced cytotoxicity. The original (parental) 8226 cell line was developed by Matsuoka, et al. (Matsuoka, et al., Proc Soc Exp Biol Med 125:1246-1250, 1967). It is a lymphoblastoid cell line which stains for lambda light immunoglobulin production. It grows in vitro in suspension culture (non-adherent) and forms tumors when injected into SCID mice. (Skehan, et al., J Natl Cancer Inst 82:1107-1112, 1990.)
# (§5) One exciting feature of our novel compounds is, that they work on imexon-resistant cells. An imexon-resistant 8226 myeloma cell line was selected by continuously exposing cells to gradually increasing concentrations of imexon up to 3.25 mg/mL. This cell line has slightly longer cell doubling time than 8226 sensitive cells (24 vs 20 hours). […] The dose response curve for imexon continuous exposure was determined using MTT assay. Each data point represents the mean of three experiments performed in 8 replicates.
# (§6) We compared IC50 concentrations and there is a 4-fold resistance observed for the 8226/I-R cell line when the cells were continuously exposed to imexon for […] at 37° C. The degree of resistance was relatively unstable in the absence of the drug, with the resistant cells losing substantial resistance when maintained in imexon-free medium for 20 weeks (FIG. 2).
# (§7) IC50 was measured by MTT assay. IC50 refer to the concentration by drug that results in 50% growth inhibition. A minimum of 2 assays were performed for each drug following 250 mg/mL imexon is equivalent to 6.5 cGy radiation in sensitive cells.
# (§8) Using the colorimetric microculture tetrazolium (MTT) assay, imexon and 25-related analogs were studied for tumor growth inhibition in vitro. Imexon-induced DNA single strand breaks were assessed by alkaline elution. Cells were exposed to imexon for 1 hour prior to start of experiment. The fraction of ^14 C-labeled DNA retained on the filter is plotted against the time of elution. The cells included parental 8226 myeloma cells and the 8226 imexon-resistant cells exposed to drug (imexon or analog) continuously for 10 days at 37° C. At the end of the exposure period, the cells were analyzed for viability using the formazan-forming tetrazolium dye (MTT) assay.
# [3] = test system: 8226/I-R myeloma cells; test: MTT growth inhibition, imexon-resistant 8226 myeloma cells; type: cell-based, human; conditions: for Fold Resistance of IC50 R/IC50 's: imexon-resistant vs sensitive 8226; for Cross-resistance of imexon-resistant cells: 8226 imexon-resistant cells
# Description: as §2, §3, §4, §5, §6, §7, §8
# [4] = test system: L-1210 MDR leukemia cells; test: MTT growth inhibition, multidrug-resistant L-1210 leukemia cells; type: cell-based, mouse; conditions: for IC50: Mus musculus, L1210, 192 h
# Description: as §3
# In addition, the imexon analogs have also been tested in a multidrug-resistant (MDR) mouse L-1210 leukemia cell line.
# L-1210 MDR Cells represent a multidrug-resistant cell line developed for resistance to the alkylating agent mitomycin C. (Dorr, et al., Biochem Pharmacol 36(19):3115-3120, 1987.) This cell line has the same general growth characteristics of the parental line, but is cross-resistant to numerous natural-product based anticancer agents. This includes anthracyclines such as doxorubicin (Adriamycin®) and vinca alkaloids such as vincristine or vinblastine.
# as §1
# [5] = test system: OVCAR-3 ovarian carcinoma cells; conditions: clinically relevant concentrations in vitro; cited from earlier work
# [6] = test system: WiDr MITOX cells; conditions: cited from earlier work
# [7] = test system: L-1210 MDR leukemia cells; conditions: cited from earlier work
# [8] = Homo sapiens, Table 5, Sensitive (parental) 8226, read-out: IC50
# [9] = Homo sapiens, Table 5, imexon-resistant 8226, read-out: IC50
# [10] = Homo sapiens, 8226/S, MTT, read-out: IC50
# [11] = Homo sapiens, 8226/I-R, MTT, read-out: IC50
compound,measurement,setting,value
"N#CC1CN1C(=O)Nc1ccc(Cl)c(Cl)c1 (centres unmarked) [AMP 408, 2-Cyanoaziridine-1-[N-(3,4-dichlorophenyl)]carboxamide]",IC50,"[1]; Sensitive L-1210, drug continuously present 8 days, read-out: IC50",0.7 µg/mL
same,IC50,[2]; [8],0.27 µg/mL
same,Enhanced potency: decrease in IC50 against myeloma cell growth,[2]; compared with imexon,> 40%
same,IC50,[3]; [9],0.68 µg/mL
same,Fold Resistance of IC50 R/IC50 's,[3]; Table 5,2.5
same,Fold Resistance of IC50 's (MDR/S),"[4]; L-1210 MDR vs sensitive, 11520 min",2.7
same,IC50,"[4]; MDR L-1210, drug continuously present 8 days, read-out: IC50",1.9 µg/mL
"N#CC1CN1C(N)=O (centres unmarked) [AMP 409, 2-cyanoaziridine-1-carboxamide, reference compound]",IC50,[1],> 10 µg/mL
same,IC50,[2]; [8],32 µg/mL
same,IC50,[3]; [9],48 µg/mL
same,Fold Resistance of IC50 R/IC50 's,[3]; Table 5,1.5
same,IC50,[4],> 10 µg/mL
"N.N.O=C([O-])C1(C(=O)[O-])CCC1.[Pt+2] [Carboplatin, reference compound]",IC50,"[2]; 8226/S, MTT, read-out: IC50",9.7 µM
same,IC50,"[3]; 8226/I-R, MTT, read-out: IC50",16 µM
same,Cross-resistance of imexon-resistant cells,[3]; MTT,partial cross-resistance
same,Fold Resistance (IC50 resistant cells/IC50 sensitive cells),"[3]; Table 4, 8226/I-R vs 8226/S",1.65
"N.N.[Cl][Pt][Cl] [Cisplatin, reference compound]",IC50,"[2]; 8226/S, MTT, read-out: IC50",1.1 µM
same,Resistance of OVCAR-3,[5],resistant in vitro to clinically relevant concentrations
same,IC50,"[3]; 8226/I-R, MTT, read-out: IC50",2 µM
same,Cross-resistance of imexon-resistant cells,[3]; MTT,partial cross-resistance
same,Fold Resistance (IC50 resistant cells/IC50 sensitive cells),"[3]; Table 4, 8226/I-R vs 8226/S",1.85
"N[C@@H](Cc1ccc(N(CCCl)CCCl)cc1)C(=O)O [Melphalan, reference compound]",IC50,[2]; Homo sapiens,0.062 µM
same,Resistance of OVCAR-3,[5],resistant in vitro to clinically relevant concentrations
same,IC50,[3]; Homo sapiens,5.3 µM
same,Fold Resistance (IC50 resistant cells/IC50 sensitive cells),"[3]; Table 4, 8226/I-R vs 8226/S",0.81
"CO[C@@]12[C@H](COC(N)=O)C3=C(C(=O)C(C)=C(N)C3=O)N1C[C@@H]1N[C@@H]12 [Mitomycin C, reference compound]",IC50,[2]; [10],0.066 µM
same,Cross-resistance of imexon-resistant cells,[3]; MTT,partial resistance
same,IC50,[3]; [11],0.099 µM
same,Fold Resistance (IC50 resistant cells/IC50 sensitive cells),"[3]; human, 8226 myeloma cells",1.50
"CC[C@]1(O)C[C@H]2CN(CCc3c([nH]c4ccccc34)[C@@](C(=O)OC)(c3cc4c(cc3OC)N(C=O)[C@H]3[C@@](O)(C(=O)OC)[C@H](OC(C)=O)[C@]5(CC)C=CCN6CC[C@]43[C@@H]65)C2)C1 [Vincristine, reference compound]",Fold resistance of WiDr MITOX cells,[6],2 fold
same,IC50,[2]; [10],0.0028 µM
same,Cross-resistance of imexon-resistant cells,[3]; MTT,remains sensitive
same,IC50,[3]; [11],0.0024 µM
same,Fold Resistance (IC50 resistant cells/IC50 sensitive cells),"[3]; Table 4, 8226/I-R vs 8226/S",0.88
same,Cross-resistance of L-1210 MDR,[7],cross-resistant
O=C1c2c(O)ccc(O)c2C(=O)c2c(NCCNCCO)ccc(NCCNCCO)c21 [mitoxantrone],Fold resistance of WiDr MITOX cells,[6],21 fold
CC[C@]1(O)C[C@@H]2CN(CCc3c([nH]c4ccccc34)[C@@](C(=O)OC)(c3cc4c(cc3OC)N(C)[C@H]3[C@@](O)(C(=O)OC)[C@H](OC(C)=O)[C@]5(CC)C=CCN6CC[C@]43[C@@H]65)C2)C1 [vinblastine],Cross-resistance of L-1210 MDR,[7],cross-resistant
Bleomycin [reference compound],IC50,"[2]; 8226/S, MTT, bleomycin",7.0 µg/mL
same,IC50,"[3]; 8226/I-R, MTT, bleomycin",7.8 µg/mL
same,Cross-resistance of imexon-resistant cells,[3]; MTT,remains sensitive
same,Fold Resistance (IC50 resistant cells/IC50 sensitive cells),"[3]; Table 4, 8226/I-R vs 8226/S",1.11
